Our source for the Kd values is article PMC9827809, “Identification of sitagliptin binding proteins by affinity purification mass spectrometry” (Acta Biochimica et Biophysica Sinica, 2022).

Structures are written as SMILES.

Holding throughout (format): binding
The target of assay [1] is T1, T-complex protein 1 subunit alpha (TCP1) (Homo sapiens, UniProt P17987, D88A).
T1 construct: TCP1 mutant D88A
The experiment in a line: SPR on mutant TCP1.

For assay [2], the target named is T2, T-complex protein 1 subunit alpha (TCP1) (Homo sapiens, UniProt P17987).
T2 construct: C-terminal Flag-His6 tag fused TCP1, expressed in E. coli BL21 (DE3)
T2 sequence (P17987 whole entry, the tested form may be a part, one chain of several): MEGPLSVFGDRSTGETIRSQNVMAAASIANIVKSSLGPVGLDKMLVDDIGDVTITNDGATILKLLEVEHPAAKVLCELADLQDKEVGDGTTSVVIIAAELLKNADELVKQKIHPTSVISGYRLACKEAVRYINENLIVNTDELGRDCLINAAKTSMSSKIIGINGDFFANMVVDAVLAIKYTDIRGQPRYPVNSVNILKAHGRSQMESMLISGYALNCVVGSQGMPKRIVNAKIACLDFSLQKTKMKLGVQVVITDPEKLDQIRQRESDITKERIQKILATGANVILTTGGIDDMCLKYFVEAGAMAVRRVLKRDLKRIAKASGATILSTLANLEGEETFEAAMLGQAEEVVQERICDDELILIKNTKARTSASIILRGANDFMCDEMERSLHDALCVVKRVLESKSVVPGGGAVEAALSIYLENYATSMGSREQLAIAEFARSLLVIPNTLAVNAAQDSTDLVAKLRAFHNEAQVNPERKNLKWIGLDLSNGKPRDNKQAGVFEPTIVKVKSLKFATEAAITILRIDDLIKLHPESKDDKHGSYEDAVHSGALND
The experiment in a line: SPR (Biacore 8K, CM5 chip, immobilized protein); also SILAC AP-MS from HEK293T lysate.

Assay [3] concerns the target T3, lysophospholipase-like 1 (LYPLAL1) (Homo sapiens, UniProt Q5VWZ2).
T3 construct: LYPLAL1 in pDEST15, expressed in E. coli BL21 (DE3)
T3 sequence (Q5VWZ2 2-237): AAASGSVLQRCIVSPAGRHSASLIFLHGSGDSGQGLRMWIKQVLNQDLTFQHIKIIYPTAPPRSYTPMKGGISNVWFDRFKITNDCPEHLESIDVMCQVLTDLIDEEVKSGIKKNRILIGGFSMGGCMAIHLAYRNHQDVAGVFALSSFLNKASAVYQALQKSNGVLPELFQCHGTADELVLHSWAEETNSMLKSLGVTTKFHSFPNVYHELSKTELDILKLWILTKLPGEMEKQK
Described as above.

For assay [4], the target named is T4, cell cycle and apoptosis regulator protein 2 (CCAR2) (Homo sapiens, UniProt Q8N163).
T4 construct: C-terminal Flag tag fused CCAR2 in pGEX-4T-1 (GST-tagged), expressed in E. coli BL21 (DE3)
T4 sequence (Q8N163 whole entry, the tested form may be a part): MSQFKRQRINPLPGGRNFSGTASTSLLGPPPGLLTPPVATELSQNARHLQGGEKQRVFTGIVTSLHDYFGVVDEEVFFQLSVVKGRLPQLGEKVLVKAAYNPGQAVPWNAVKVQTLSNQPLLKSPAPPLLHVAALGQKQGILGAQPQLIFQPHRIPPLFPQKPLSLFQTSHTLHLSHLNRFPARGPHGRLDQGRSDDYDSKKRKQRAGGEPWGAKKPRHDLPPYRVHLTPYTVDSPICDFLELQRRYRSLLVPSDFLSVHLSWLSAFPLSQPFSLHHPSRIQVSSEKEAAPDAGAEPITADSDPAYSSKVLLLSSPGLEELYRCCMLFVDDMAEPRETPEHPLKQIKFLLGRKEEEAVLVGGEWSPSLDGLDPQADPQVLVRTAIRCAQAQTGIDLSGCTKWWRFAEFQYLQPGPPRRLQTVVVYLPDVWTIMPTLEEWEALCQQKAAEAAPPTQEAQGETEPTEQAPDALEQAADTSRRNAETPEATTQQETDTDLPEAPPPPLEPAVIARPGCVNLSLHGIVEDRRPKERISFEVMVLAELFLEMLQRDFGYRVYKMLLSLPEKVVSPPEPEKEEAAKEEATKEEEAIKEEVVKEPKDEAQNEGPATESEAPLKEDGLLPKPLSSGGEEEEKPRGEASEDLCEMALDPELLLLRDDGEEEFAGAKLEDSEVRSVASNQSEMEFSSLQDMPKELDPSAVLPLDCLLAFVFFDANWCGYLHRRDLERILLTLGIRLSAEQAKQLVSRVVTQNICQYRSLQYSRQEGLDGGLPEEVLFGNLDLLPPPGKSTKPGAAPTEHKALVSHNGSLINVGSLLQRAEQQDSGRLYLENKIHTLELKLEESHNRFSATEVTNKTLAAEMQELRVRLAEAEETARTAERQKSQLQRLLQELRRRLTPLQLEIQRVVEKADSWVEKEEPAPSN
Described as above.

T1 sequence (P17987 whole entry D88A, one chain of several): as the sequence (P17987 whole entry, the tested form may be a part, one chain of several) above, with D88A counted along it

By Kd is commonly meant the equilibrium constant for the complex coming apart. Low readings indicate tighter binding, high ones weaker binding. As to `O=C(CCCC[C@@H]1SC[C@@H]2NC(=O)N[C@@H]21)NCCOCCOCCOCCOCCOCc1cn([C@@H](CC(=O)N2CCn3c(nnc3C(F)(F)F)C2)Cc2cc(F)c(F)cc2F)nn1` [biotin-PEG5-sitagliptin], the equilibrium dissociation constant (Kd) was determined as 494 µM in assay [1], 50.1 µM in assay [2], 1440 µM in assay [3] and 441 µM in assay [4].
